These results are taken from patent US9073855B2, “BCL-2 selective apoptosis-inducing agents for the treatment of cancer and immune diseases” (AbbVie Inc., priority 2008, dated 2015).

For experiment [1], the target named is GST-Bcl-2 (Homo sapiens, UniProt P10415). Briefly: TR-FRET binding assay, GST-Bcl-2 with F-Bak peptide probe. The settings on record: TR-FRET Binding Affinity, GST-Bcl-2, F-Bak peptide probe. The method in brief: (§1)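 Ki was derived with Wang's equation for competitive binding of two ligands. The read-out was time-resolved fluorescence after a 3 h room-temperature incubation, using a Tb-labelled antibody donor and the F-Bak peptide acceptor (excitation 340/35 nm). Test compounds entered as DMSO serial dilutions starting at 50 μM, which was the 2× concentration.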
GST-Bcl-2, sequence (P10415 whole entry): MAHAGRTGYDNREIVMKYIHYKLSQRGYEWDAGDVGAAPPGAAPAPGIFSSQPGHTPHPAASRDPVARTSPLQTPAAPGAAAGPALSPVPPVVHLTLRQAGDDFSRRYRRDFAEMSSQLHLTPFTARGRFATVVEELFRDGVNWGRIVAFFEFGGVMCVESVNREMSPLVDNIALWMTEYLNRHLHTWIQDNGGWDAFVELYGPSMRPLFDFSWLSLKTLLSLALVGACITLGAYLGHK

The subject of experiment [2] is Canine platelets. Briefly: Platelet cell viability assay (platelet-rich plasma, Cell Titer Glo). The class given is cell-based. The settings on record: Canis lupus familiaris, 5 h, isolated canine platelets ex vivo, five hours at 37° C. As for the experimental part: After the incubation, platelets were equilibrated to room temperature for 20 minutes and then an equal volume of Cell Titer Glo reagent (Promega Corporation) was added. Samples were mixed for two minutes and then allowed to equilibrate for an additional 10 minutes at room temperature. The luminescence generated from the samples was quantitated using an LJL Analyst plate reader.
The effect of compounds on platelet survival can be directly evaluated ex vivo by examining the viability of isolated canine platelets in the presence of various concentrations of compound.

Experiment [3] addresses GST-Bcl-XL (Homo sapiens, UniProt Q07817). Briefly: TR-FRET binding assay, GST-Bcl-XL with F-Bak peptide probe. The note with it: TR-FRET Binding Affinity, GST-Bcl-XL, F-Bak peptide probe. The method in brief:
as §1

Experiment [4] relates to FL5.12/Bcl-2 cells. Nature of the experiment: FL5.12/Bcl-2 cell viability assay under IL-3 withdrawal (CellTitre Glo). The class given is cell-based, murine. The settings on record: Mus musculus, IL-3 withdrawn 48 hrs, then 24 hrs with compound. In a few lines: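 Bcl-2-overexpressing murine FL5.12 transfectants underwent IL-3 removal for 48 hrs before a 24 hr compound treatment. Cell viability was quantified with CellTitre Glo.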

GST-Bcl-XL, sequence (Q07817 whole entry): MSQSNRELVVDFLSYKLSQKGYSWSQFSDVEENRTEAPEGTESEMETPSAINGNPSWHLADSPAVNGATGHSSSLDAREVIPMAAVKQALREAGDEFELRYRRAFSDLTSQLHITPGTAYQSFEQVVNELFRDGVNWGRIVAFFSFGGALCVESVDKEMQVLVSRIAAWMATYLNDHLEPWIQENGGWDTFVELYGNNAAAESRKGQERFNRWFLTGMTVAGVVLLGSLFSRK

For `CN(C)CCCNc1ccc(S(=O)(=O)NC(=O)c2ccc(N3CCN(CC4=C(c5ccc(Cl)cc5)CC(C)(C)CC4)CC3)cc2Oc2ccc3[nH]ccc3c2)cc1[N+](=O)[O-]` [Example 53, 4-(4-{[2-(4-chlorophenyl)-4,4-dimethylcyclohex-1-en-1-yl]methyl}piperazin-1-yl)-N-[(4-{[3-(dimethylamino)propyl]amino}-3-nitrophenyl)sulfonyl]-2-(1H-indol-5-yloxy)benzamide], the Ki worked out at 0.081 nM in experiment [1] and 4.85 nM in experiment [3]. The concentration giving a half-maximal response (EC50) in experiment [2] amounted to 18300 nM; in experiment [4], 11 nM.
For the compound `CC1(C)CCC(c2ccc(Cl)cc2)=C(CN2CCN(c3ccc(C(=O)NS(=O)(=O)c4ccc(NCCCN5CCOCC5)c([N+](=O)[O-])c4)c(Oc4cccc5[nH]ccc45)c3)CC2)C1` [Example 54, 4-(4-{[2-(4-chlorophenyl)-5,5-dimethylcyclohex-1-en-1-yl]methyl}piperazin-1-yl)-2-(1H-indol-4-yloxy)-N-({4-[(3-morpholin-4-ylpropyl)amino]-3-nitrophenyl}sulfonyl)benzamide], the inhibitory constant (Ki) stood at 0.757 nM in experiment [1] and 82 nM in experiment [3]. In addition, the half-maximal effective concentration (EC50) in experiment [2] was > 50000 nM; in experiment [4] it was 64 nM.
Turning to `CC1(C)CCC(CN2CCN(c3ccc(C(=O)NS(=O)(=O)c4ccc(NCCCN5CCOCC5)c([N+](=O)[O-])c4)c(Oc4cccc5[nH]ccc45)c3)CC2)=C(c2ccc(Cl)cc2)C1` [Example 55, 4-(4-{[2-(4-chlorophenyl)-4,4-dimethylcyclohex-1-en-1-yl]methyl}piperazin-1-yl)-2-(1H-indol-4-yloxy)-N-({4-[(3-morpholin-4-ylpropyl)amino]-3-nitrophenyl}sulfonyl)benzamide], the results for the inhibition constant (Ki) in experiment [1] and in experiment [3] were 0.196 nM and 24.9 nM, respectively. Besides, the 50% effective concentration (EC50) in experiment [2] was found to be 36000 nM; in experiment [4], 22 nM.
For `CN(C)CCCNc1ccc(S(=O)(=O)NC(=O)c2ccc(N3CCN(CC4=C(c5ccc(Cl)cc5)CCC(C)(C)C4)CC3)cc2Oc2cccc3[nH]ccc23)cc1[N+](=O)[O-]` [Example 56, 4-(4-{[2-(4-chlorophenyl)-5,5-dimethylcyclohex-1-en-1-yl]methyl}piperazin-1-yl)-N-[(4-{[3-(dimethylamino)propyl]amino}-3-nitrophenyl)sulfonyl]-2-(1H-indol-4-yloxy)benzamide], in that order: 0.268 nM, 12.9 nM, 27000 nM and 49 nM.
In the case of `CN(C)CCCNc1ccc(S(=O)(=O)NC(=O)c2ccc(N3CCN(CC4=C(c5ccc(Cl)cc5)CC(C)(C)CC4)CC3)cc2Oc2cccc3[nH]ccc23)cc1[N+](=O)[O-]` [Example 57, 4-(4-{[2-(4-chlorophenyl)-4,4-dimethylcyclohex-1-en-1-yl]methyl}piperazin-1-yl)-N-[(4-{[3-(dimethylamino)propyl]amino}-3-nitrophenyl)sulfonyl]-2-(1H-indol-4-yloxy)benzamide], the inhibition constant Ki in experiment [1] amounted to 0.068 nM; in experiment [3] it was 4.67 nM. In addition, the results for the EC50 in experiment [2] and in experiment [4] were 16800 nM and 16 nM, respectively.
The like results for `COc1ccc(C2=C(CN3CCN(c4ccc(C(=O)NS(=O)(=O)c5ccc(NCCCN6CCCC6)c([N+](=O)[O-])c5)c(Oc5cccc6[nH]ccc56)c4)CC3)CCC(C)(C)C2)cc1` [Example 68, 2-(1H-indol-4-yloxy)-4-(4-{[2-(4-methoxyphenyl)-4,4-dimethylcyclohex-1-en-1-yl]methyl}piperazin-1-yl)-N-({3-nitro-4-[(3-pyrrolidin-1-ylpropyl)amino]phenyl}sulfonyl)benzamide] were, in that order, 1.23 nM, 14 nM, > 50000 nM and 44 nM.
As to `CC1(C)CCC(CN2CCN(c3ccc(C(=O)NS(=O)(=O)c4ccc(NCCCN5CCCC5)c([N+](=O)[O-])c4)c(Oc4cccc5[nH]ccc45)c3)CC2)=C(c2ccc(C(F)(F)F)cc2)C1` [Example 69, 4-[4-({4,4-dimethyl-2-[4-(trifluoromethyl)phenyl]cyclohex-1-en-1-yl}methyl)piperazin-1-yl]-2-(1H-indol-4-yloxy)-N-({3-nitro-4-[(3-pyrrolidin-1-ylpropyl)amino]phenyl}sulfonyl)benzamide], the Ki in experiment [1] was determined as 1.25 nM; in experiment [3], 92.1 nM. For the same compound, the figures for the EC50 in experiment [2] and in experiment [4] were > 50000 nM and 75 nM, respectively.
As for `CC1(C)CCC(CN2CCN(c3ccc(C(=O)NS(=O)(=O)c4ccc(NCCCN5CCCC5)c([N+](=O)[O-])c4)c(Oc4cccc5[nH]ccc45)c3)CC2)=C(c2ccc(OC(F)(F)F)cc2)C1` [Example 70, 4-[4-({4,4-dimethyl-2-[4-(trifluoromethoxy)phenyl]cyclohex-1-en-1-yl}methyl)piperazin-1-yl]-2-(1H-indol-4-yloxy)-N-({3-nitro-4-[(3-pyrrolidin-1-ylpropyl)amino]phenyl}sulfonyl)benzamide], the Ki in experiment [1] amounted to 1.19 nM; in experiment [3], 74.4 nM. For the same compound, the concentration for a half-maximal effect (EC50) is > 50000 nM in experiment [2] and 111 nM in experiment [4].
For the compound `CC1(C)CCC(CN2CCN(c3ccc(C(=O)NS(=O)(=O)c4ccc(NCCCN5CCCC5)c([N+](=O)[O-])c4)c(Oc4cccc5[nH]ccc45)c3)CC2)=C(c2cccc(C(F)(F)F)c2)C1` [Example 71, 4-[4-({4,4-dimethyl-2-[3-(trifluoromethyl)phenyl]cyclohex-1-en-1-yl}methyl)piperazin-1-yl]-2-(1H-indol-4-yloxy)-N-({3-nitro-4-[(3-pyrrolidin-1-ylpropyl)amino]phenyl}sulfonyl)benzamide], the Ki in experiment [1] is 6.23 nM; in experiment [3], > 660 nM. For the same compound, the EC50 in experiment [2] is > 50000 nM; in experiment [4], 460 nM.
Consider `CC1(C)CCC(CN2CCN(c3ccc(C(=O)NS(=O)(=O)c4ccc(NCCCN5CCCC5)c([N+](=O)[O-])c4)c(Oc4cccc5[nH]ccc45)c3)CC2)=C(c2cccc(F)c2)C1` [Example 72, 4-(4-{[2-(3-fluorophenyl)-4,4-dimethylcyclohex-1-en-1-yl]methyl}piperazin-1-yl)-2-(1H-indol-4-yloxy)-N-({3-nitro-4-[(3-pyrrolidin-1-ylpropyl)amino]phenyl}sulfonyl)benzamide], for which the inhibition constant Ki in experiment [1] stood at 3.02 nM; in experiment [3], 52.4 nM. Moreover, the EC50 in experiment [2] was > 50000 nM; in experiment [4], 154 nM.
As to `CC1(C)CCC(CN2CCN(c3ccc(C(=O)NS(=O)(=O)c4ccc(NCCCN5CCCC5)c([N+](=O)[O-])c4)c(Oc4cccc5[nH]ccc45)c3)CC2)=C(c2ccc(F)cc2)C1` [Example 73, 4-(4-{[2-(4-fluorophenyl)-4,4-dimethylcyclohex-1-en-1-yl]methyl}piperazin-1-yl)-2-(1H-indol-4-yloxy)-N-({3-nitro-4-[(3-pyrrolidin-1-ylpropyl)amino]phenyl}sulfonyl)benzamide], the Ki in experiment [1] worked out at 1.7 nM; in experiment [3] it was 16.9 nM. The EC50 is 23200 nM in experiment [2] and 140 nM in experiment [4].
For `CN1CCC(Nc2ccc(S(=O)(=O)NC(=O)c3ccc(N4CCN(CC5=C(c6ccc(Cl)cc6)CC(C)(C)CC5)CC4)cc3Oc3ccc4[nH]ccc4c3)cc2S(=O)(=O)C(F)(F)Cl)CC1` [Example 74, N-({3-{[chloro(difluoro)methyl]sulfonyl}-4-[(1-methylpiperidin-4-yl)amino]phenyl}sulfonyl)-4-(4-{[2-(4-chlorophenyl)-4,4-dimethylcyclohex-1-en-1-yl]methyl}piperazin-1-yl)-2-(1H-indol-5-yloxy)benzamide], the Ki was determined as 0.02 nM in experiment [1] and 25.2 nM in experiment [3]. Besides, the EC50 amounted to 16700 nM in experiment [2] and 8 nM in experiment [4].
Turning to `CN1CCC(Nc2ccc(S(=O)(=O)NC(=O)c3ccc(N4CCN(CC5=C(c6ccc(Cl)cc6)CCCC5)CC4)cc3Oc3ccc4[nH]ccc4c3)cc2[N+](=O)[O-])CC1` [Example 75, 4-(4-{[2-(4-chlorophenyl)cyclohex-1-en-1-yl]methyl}piperazin-1-yl)-2-(1H-indol-5-yloxy)-N-({4-[(1-methylpiperidin-4-yl)amino]-3-nitrophenyl}sulfonyl)benzamide], the inhibition constant (Ki) in experiment [1] is 0.125 nM; in experiment [3], 107 nM. Moreover, the concentration giving a half-maximal response (EC50) in experiment [2] stood at 17700 nM; in experiment [4], 22 nM.
With `CN1CCN(CCCNc2ccc(S(=O)(=O)NC(=O)c3ccc(N4CCN(Cc5ccccc5-c5ccc(Cl)cc5)CC4)cc3Oc3ccccc3)cc2[N+](=O)[O-])CC1` [Example 86, 4-{4-[(4′-chloro-1,1′-biphenyl-2-yl)methyl]piperazin-1-yl}-N-[(4-{[3-(4-methylpiperazin-1-yl)propyl]amino}-3-nitrophenyl)sulfonyl]-2-phenoxybenzamide], the inhibition constant (Ki) turned out to be 0.212 nM in experiment [1] and 10.5 nM in experiment [3]. Moreover, the EC50 in experiment [2] was 36300 nM; in experiment [4] it was 74 nM.
In the case of `CN1CCC(CNc2ccc(S(=O)(=O)NC(=O)c3ccc(N4CCN(Cc5ccccc5-c5ccc(Cl)cc5)CC4)cc3Oc3ccccc3)cc2[N+](=O)[O-])CC1` [Example 88, 4-{4-[(4′-chloro-1,1′-biphenyl-2-yl)methyl]piperazin-1-yl}-N-[(4-{[(1-methylpiperidin-4-yl)methyl]amino}-3-nitrophenyl)sulfonyl]-2-phenoxybenzamide], the Ki was determined as 0.069 nM in experiment [1] and 4.64 nM in experiment [3]. Besides, the EC50 in experiment [2] came out at 19900 nM; in experiment [4], 32 nM.
